In patent US20240148821A1, “PHARMACEUTICAL USE OF CYCLIC PEPTIDE COMPOUND” (CHUGAI SEIYAKU KABUSHIKI KAISHA, priority 2021, published 2024):
Numbered stars: 1 amine (or outer) side, 2 acyl side, 3 side chain; on linkers, the order of the positions; unused ones are H or OH. Bridge positions count the residues as written; N and C are the ends. Square brackets hold non-standard residues; d marks the D form. Peptide text beside a SMILES is read from it. * marks the point of attachment. hPhe(3-Cl-4-CF3) = N[C@@H](CCc1ccc(C(F)(F)F)c(Cl)c1)C(=O)O; hPhe(3-F,4-CF3) = N[C@@H](CCc1ccc(C(F)(F)F)c(F)c1)C(=O)O; NEtPhe(4-CF3) = CCN[C@@H](Cc1ccc(C(F)(F)F)cc1)C(=O)O; NMePhe(4-CF3) = CN[C@@H](Cc1ccc(C(F)(F)F)cc1)C(=O)O; X25 = COc1ccc(C[C@@H](C(=O)[*:2])N(C)[*:1])cn1; NMePhe(4-Me) = CN[C@@H](Cc1ccc(C)cc1)C(=O)O; NMedβ3hAla = C[C@H](CC(=O)[*:2])N(C)[*:1]; NMeGly(cPent) = CN[C@H](C(=O)O)C1CCCC1; NMeCha = CN[C@@H](CC1CCCCC1)C(=O)O; Hyp = O=C(O)[C@@H]1C[C@@H](O)CN1; NMeChg = CN[C@H](C(=O)O)C1CCCCC1; NMeI = CC[C@H](C)[C@H](NC)C(=O)O; NMeE = CN[C@@H](CCC(=O)O)C(=O)O; NMeD = CN[C@@H](CC(=O)O)C(=O)O; NMeL = CN[C@@H](CC(C)C)C(=O)O; d(β3hA) = C[C@@H](N)CC(=O)O; NMeS = CN[C@@H](CO)C(=O)O; NMeA = CN[C@@H](C)C(=O)O; Piperidide = C1CCN(*)CC1; Pyrrolidide = C1CCN(*)C1; Ac5c = NC1(C(=O)O)CCCC1; Aze = O=C(O)[C@@H]1CCN1; Ac4c = NC1(C(=O)O)CCC1; Sar = CNCC(=O)O; Propyl = CCC*

What was measured:
[1] = test system: Human pancreatic cancer cell line AsPC-1 (G12D mutation Kras); experiment: AsPC-1 cell growth inhibition (AsPC-1 CGI); type: cell-based; details: read-out: AsPC-1 cell growth inhibition, 50% growth inhibitory concentration (IC50 value); 96 hours, CellTiter-Glo, values classified in ranges
Description: Test compounds were serially dilated with dimethyl sulfoxide, and 200 nL was then dispensed to a U-bottom 96-well plate using Labcyte Echo. […] The cell suspension was dispensed to a. plate containing a test compound at 100 μL per well and incubated at 37° C. in a 5% carbon dioxide gas incubator. 96 hours later, 80 μL of CellTiter-Glo (Promega) was added to each well and fluorescence was measured.

[2] = target: protein-protein interaction between Kras and SOS1 (biotin-tagged human Kras loaded with GDP, His-tagged human SOS1) (Homo sapiens (Human), UniProt P01116, G12D); experiment: Protein-protein interaction inhibition between Kras and SOS1 (KrasG12D-SOS PPI) using AlphaScreen; type: biochemical; details: AlphaScreen; biotin-tagged human Kras loaded with GDP, His-tagged human SOS1; read-out: KRAS G12D-SOS PPI IC50;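 further: kras produced in E. coli, Ni-coupled donor beads and streptavidin acceptor beads, excitation 680 nm with emission detected at 520–620 nm via singlet oxygen transfer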

Structure (SMILES) | IC50 [1] | IC50 [2]
CCO[C@@H]1C[C@H]2C(=O)NC3(CCC3)C(=O)N(C)[C@@H]([C@@H](C)CC)C(=O)N(C)[C@H](C)CC(=O)N(C)[C@@H](CC(C)C)C(=O)N[C@@H]([C@@H](C)CC)C(=O)N(C)[C@@H](C)C(=O)N3CC[C@H]3C(=O)N(CC)[C@@H](Cc3ccc(C(F)(F)F)cc3)C(=O)N(C)CC(=O)N[C@@H](CCc3ccc(C(F)(F)F)c(Cl)c3)C(=O)N2C1 [Compound 547] (cyclo([Ac4c][NMeI][NMedβ3hAla][NMeL]I[NMeA][Aze][NEtPhe(4-CF3)][Sar][hPhe(3-Cl-4-CF3)][Hyp](Et))) | ≤ 20 nM | 1 nM
CC[C@H](C)[C@@H]1NC(=O)[C@H](CC(C)C)N(C)C(=O)C[C@@H](C(=O)N(C)C)N(C)C(=O)[C@H]([C@@H](C)CC)N(C)C(=O)C2(CCCC2)NC(=O)[C@@H]2CCCN2C(=O)[C@H](CCc2ccc(C(F)(F)F)c(F)c2)NC(=O)CN(C)C(=O)[C@H](C2CCCC2)N(C)C(=O)[C@@H]2CCN2C(=O)[C@H](C)N(C)C1=O [Compound 555] ([NMeL]I[NMeA][Aze][NMeGly(cPent)][Sar][hPhe(3-F,4-CF3)]P[Ac5c][NMeI][NMeD]-NMe2; lactam N-11) | ≤ 20 nM | 2.6 nM
CCCOC[C@H]1C(=O)N(C)CC(=O)N[C@@H](CCc2ccc(C(F)(F)F)c(Cl)c2)C(=O)N2CCC[C@H]2C(=O)NC2(CCCC2)C(=O)N(C)[C@@H]([C@@H](C)CC)C(=O)N(C)[C@H](C(=O)N2CCCC2)CC(=O)N(C)[C@@H](CC(C)C)C(=O)N[C@@H]([C@@H](C)CC)C(=O)N(C)[C@@H](C)C(=O)N2CC[C@H]2C(=O)N1C [Compound 567] ([NMeL]I[NMeA][Aze][NMeS](Propyl)[Sar][hPhe(3-Cl-4-CF3)]P[Ac5c][NMeI][NMeD]-Pyrrolidide; lactam N-11) | ≤ 20 nM | 1.5 nM
CC[C@H](C)[C@@H]1NC(=O)[C@H](CC(C)C)N(C)C(=O)C[C@@H](C)N(C)C(=O)[C@H](C2CCCC2)N(C)C(=O)C2(CCCC2)NC(=O)[C@@H]2CCCN2C(=O)[C@H](CCc2ccc(C(F)(F)F)c(Cl)c2)NC(=O)CN(C)C(=O)[C@H](Cc2ccc(C(F)(F)F)cc2)N(C)C(=O)[C@@H]2CCN2C(=O)[C@H](C)N(C)C1=O [Compound 587] (cyclo([Ac5c][NMeGly(cPent)][NMedβ3hAla][NMeL]I[NMeA][Aze][NMePhe(4-CF3)][Sar][hPhe(3-Cl-4-CF3)]P)) | ≤ 20 nM | 1.2 nM
CC[C@H](C)[C@@H]1NC(=O)[C@H](CC(C)C)N(C)C(=O)C[C@@H](C(=O)N2CCCC2)N(C)C(=O)[C@H](C2CCCC2)N(C)C(=O)C2(CCCC2)NC(=O)[C@@H]2CCCN2C(=O)[C@H](CCc2ccc(C(F)(F)F)c(Cl)c2)NC(=O)CN(C)C(=O)[C@H](Cc2ccc(C(F)(F)F)cc2)N(C)C(=O)[C@@H]2CCN2C(=O)[C@H](C)N(C)C1=O [Compound 589] ([NMeL]I[NMeA][Aze][NMePhe(4-CF3)][Sar][hPhe(3-Cl-4-CF3)]P[Ac5c][NMeGly(cPent)][NMeD]-Pyrrolidide; lactam N-11) | ≤ 20 nM | 0.49 nM
CC[C@H](C)[C@@H]1NC(=O)[C@H](CC(C)C)N(C)C(=O)C[C@@H](C(=O)N2CCCCC2)N(C)C(=O)[C@H](C2CCCCC2)N(C)C(=O)C2(CCCC2)NC(=O)[C@H](CCC(=O)NC)N(C)C(=O)[C@H](CCc2ccc(C(F)(F)F)c(Cl)c2)NC(=O)CN(C)C(=O)[C@H](CC2CCCCC2)N(C)C(=O)CN(C)C(=O)CN(C)C1=O [Compound 590] ([NMeL]I[Sar][Sar][NMeCha][Sar][hPhe(3-Cl-4-CF3)][NMeE](NHMe)[Ac5c][NMeChg][NMeD]-Piperidide; lactam N-11) | > 500 nM | 1.4 nM
CC[C@H](C)[C@@H]1NC(=O)[C@H](CC(C)C)N(C)C(=O)C[C@@H](C(=O)N2CCCCC2)N(C)C(=O)[C@H](C2CCCCC2)N(C)C(=O)C2(CCCC2)NC(=O)[C@H](Cc2ccc(OC)nc2)N(C)C(=O)[C@H](CCc2ccc(C(F)(F)F)c(Cl)c2)NC(=O)CN(C)C(=O)[C@H](CC2CCCCC2)N(C)C(=O)CN(C)C(=O)CN(C)C1=O [Compound 592] ([NMeL]I[Sar][Sar][NMeCha][Sar][hPhe(3-Cl-4-CF3)][X25][Ac5c][NMeChg][NMeD]-Piperidide; lactam N-11) | > 500 nM | 26 nM
CCO[C@@H]1C[C@H]2C(=O)NC3(CCC3)C(=O)N(C)[C@@H](C3CCCC3)C(=O)N(C)[C@H](C)CC(=O)N(C)[C@@H](CC(C)C)C(=O)N[C@@H]([C@@H](C)CC)C(=O)N(C)[C@@H](C)C(=O)N3CC[C@H]3C(=O)N(CC)[C@@H](Cc3ccc(C(F)(F)F)cc3)C(=O)N(C)CC(=O)N[C@@H](CCc3ccc(C(F)(F)F)c(Cl)c3)C(=O)N2C1 [Compound 594] (cyclo([Ac4c][NMeGly(cPent)][NMedβ3hAla][NMeL]I[NMeA][Aze][NEtPhe(4-CF3)][Sar][hPhe(3-Cl-4-CF3)][Hyp](Et))) | ≤ 20 nM | 0.54 nM
CC[C@H](C)[C@@H]1NC(=O)[C@H](CC(C)C)N(C)C(=O)C[C@@H](C)NC(=O)[C@H](C2CCCC2)N(C)C(=O)[C@@H](C(C)C)NC(=O)[C@@H]2CCCN2C(=O)[C@H](CCc2ccc(C(F)(F)F)c(Cl)c2)NC(=O)CN(C)C(=O)[C@H](Cc2ccc(C)cc2)N(C)C(=O)[C@@H]2CCN2C(=O)[C@H](C)N(C)C1=O [Compound 598] (cyclo([Aze][NMePhe(4-Me)][Sar][hPhe(3-Cl-4-CF3)]P[dV][NMeGly(cPent)][d(β3hA)][NMeL]I[NMeA])) | > 500 nM | 300 nM
